{"source": "patent US7482462B2", "about": "“Acylsulfonamides as inhibitors of steroid sulfatase” (priority 2001, dated 2009)", "molecular_target": "T1, human steroid sulfatase (Homo sapiens, UniProt P08842)", "T1 construct": "Human placenta is obtained freshly after delivery; from tissue; host or cells: human placenta (microsomes, Triton X-100 extract, column-purified)", "T1 sequence (P08842 22-583)": "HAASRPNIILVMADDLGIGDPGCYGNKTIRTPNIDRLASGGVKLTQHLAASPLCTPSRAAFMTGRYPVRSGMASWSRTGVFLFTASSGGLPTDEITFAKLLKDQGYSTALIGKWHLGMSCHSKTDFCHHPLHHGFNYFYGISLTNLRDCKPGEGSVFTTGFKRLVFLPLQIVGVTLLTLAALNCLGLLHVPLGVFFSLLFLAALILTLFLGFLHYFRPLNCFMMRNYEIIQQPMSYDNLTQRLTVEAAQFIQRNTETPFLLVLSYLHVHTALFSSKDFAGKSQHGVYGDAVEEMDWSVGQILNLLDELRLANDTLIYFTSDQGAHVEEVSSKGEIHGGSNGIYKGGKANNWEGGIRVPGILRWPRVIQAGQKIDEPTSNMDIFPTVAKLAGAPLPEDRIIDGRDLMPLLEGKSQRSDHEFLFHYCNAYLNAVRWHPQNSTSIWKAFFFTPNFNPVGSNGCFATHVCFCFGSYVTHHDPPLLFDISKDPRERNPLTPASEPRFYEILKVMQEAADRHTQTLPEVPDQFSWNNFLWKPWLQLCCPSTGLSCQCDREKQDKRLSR", "assay": "Assay of Human Steroid Sulfatase (purified from placenta, 4-methylumbelliferyl sulfate cleavage, fluorescence)", "type": "biochemical", "conditions": "reference compound, determined in parallel to test compounds; substrate 4-methylumbelliferyl sulfate, 37° C., 1 hour", "method": "For storage, the material is frozen at −70° C.\nThe activity is recovered in the flow-through.\nPlates are incubated at 37° C. for 1 hour.\nRelative IC50 values are defined as follows: […]"}
{"compound": "CC12CCC3c4ccc(OS(N)(=O)=O)cc4CCC3C1CCC2=O", "note": "(stereo not shown) [estrone sulfamate, Estrone sulfamate]", "values": [{"measurement": "IC50", "result": "~60", "unit": "nM"}]}
